The test system of test [1] is CCL17 secretion in peripheral human whole blood. The experiment in a line: Human Whole Blood (HWB) CCL17 TR-FRET Assay (IL-13 stimulated CCL17 secretion). Type of test: cell-based. The note with it: Homo sapiens, 48 h, human whole blood, IL-13 stimulated. In short, it runs like this: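 IC50 comes from serum CCL17 measured by a TR-FRET sandwich assay (16 h at room temperature, 665/615 nm ratio). Beforehand, blood in sodium heparin was exposed to an 11-point, 3-fold compound series for 2 h at 37°C and then to 10 ng/mL IL-13 for 48 h.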

For another test, the target named is T1, STAT6 (Homo sapiens, UniProt P42226).
T1 construct: stably transfected HaCaT keratinocyte cell line, which expresses NanoLuc luciferase reporter gene under the transcriptional control of the STAT6 responsive promoter; endogenous in cells; host or cells: HaCaT keratinocyte reporter cell line (stably transfected with a NanoLuc reporter)
T1 sequence (P42226 1-847): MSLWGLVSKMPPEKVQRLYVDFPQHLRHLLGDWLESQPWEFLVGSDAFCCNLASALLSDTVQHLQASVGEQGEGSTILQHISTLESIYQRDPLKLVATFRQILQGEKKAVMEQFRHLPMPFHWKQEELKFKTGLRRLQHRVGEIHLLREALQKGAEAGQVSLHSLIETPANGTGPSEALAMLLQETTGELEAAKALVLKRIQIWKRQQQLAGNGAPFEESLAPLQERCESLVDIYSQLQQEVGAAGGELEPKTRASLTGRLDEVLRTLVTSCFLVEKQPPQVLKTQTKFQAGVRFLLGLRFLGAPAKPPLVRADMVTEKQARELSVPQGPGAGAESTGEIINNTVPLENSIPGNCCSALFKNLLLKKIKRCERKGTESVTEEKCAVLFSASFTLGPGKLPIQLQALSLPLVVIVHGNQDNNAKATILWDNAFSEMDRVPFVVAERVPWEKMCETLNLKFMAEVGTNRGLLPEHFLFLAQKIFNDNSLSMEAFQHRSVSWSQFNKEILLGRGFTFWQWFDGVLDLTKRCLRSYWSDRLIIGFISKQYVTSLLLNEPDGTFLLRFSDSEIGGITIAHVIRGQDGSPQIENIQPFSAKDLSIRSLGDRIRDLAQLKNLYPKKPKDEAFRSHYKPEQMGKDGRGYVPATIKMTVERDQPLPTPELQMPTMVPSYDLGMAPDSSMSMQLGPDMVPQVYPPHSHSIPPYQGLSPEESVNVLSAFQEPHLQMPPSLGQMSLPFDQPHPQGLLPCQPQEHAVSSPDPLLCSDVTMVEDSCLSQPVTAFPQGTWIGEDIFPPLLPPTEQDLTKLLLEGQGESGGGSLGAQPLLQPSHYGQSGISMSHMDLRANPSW
In words: STAT6 Reporter Luciferase Assay (IL-13 stimulated HaCaT keratinocyte NanoLuc reporter cells). The class given is cell-based. Particulars: IL-13 stimulated HaCaT STAT6 NanoLuc reporter cells; read-out: Reporter EC50. In short, it runs like this: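 Luminescence from a NanoLuc reporter driven by the STAT6-responsive IL-13Ra2 promoter in HaCaT keratinocytes serves as the read-out. Compounds are given 2 h before a 4 h stimulation with 0.12 nM IL-13.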

A value given as a limit tells only on which side of the number the result lay.

Compound `CCn1nc(C(=O)NCc2ccc(NC(=O)N(C)C)cc2)c2c1[C@@H](C)CN(c1ncc(C(=O)N3Cc4cccnc4C3)cn1)C2` [Example 495, (S)-5-(5-(6,7-dihydro-5H-pyrrolo[3,4-b]pyridine-6-carbonyl)pyrimidin-2-yl)-N-(4-(3,3-dimethylureido)benzyl)-1-ethyl-7-methyl-4,5,6,7-tetrahydro-1H-pyrazolo[4,3-c]pyridine-3-carboxamide] registered an IC50 in test [1] of 34 nM. On STAT6, the EC50 came to 1 nM.

Take `CNC(=O)c1ccc(CNC(=O)c2nn(C(C)C)c3c2CN(c2ncc(C(=O)N4Cc5cccnc5C4)cn2)C[C@@H]3C)cc1` [Example 496, (S)-5-(5-(6,7-dihydro-5H-pyrrolo[3,4-b]pyridine-6-carbonyl)pyrimidin-2-yl)-1-isopropyl-7-methyl-N-(4-(methylcarbamoyl)benzyl)-4,5,6,7-tetrahydro-1H-pyrazolo[4,3-c]pyridine-3-carboxamide]: the IC50 in test [1] is 16 nM. The half-maximal effective concentration (EC50) on STAT6 came to 4 nM.

For `CCOC(=O)Nc1ccc(CNC(=O)c2nn(C(C)C)c3c2CN(c2ccc(C(=O)N(C)C)cn2)C[C@@H]3C)cc1` [Example 497, ethyl (S)-(4-((5-(5-(dimethylcarbamoyl)pyridin-2-yl)-1-isopropyl-7-methyl-4,5,6,7-tetrahydro-1H-pyrazolo[4,3-c]pyridine-3-carboxamido)methyl)phenyl)carbamate], the half-inhibitory concentration (IC50) in test [1] was found to be 16 nM. Further, the concentration for a half-maximal effect (EC50) at STAT6 amounted to 1 nM.

For the compound `CC(C)n1nc(C(=O)NCc2ccc(NC(=O)N(C)C)cc2)c2c1[C@@H](C)CN(c1ncc(C(=O)O)cn1)C2` [Example 498, (S)-2-(3-((4-(3,3-Dimethylureido)benzyl)carbamoyl)-1-isopropyl-7-methyl-1,4,6,7-tetrahydro-5H-pyrazolo[4,3-c]pyridin-5-yl)pyrimidine-5-carboxylic acid], the midpoint of inhibition in test [1], the IC50, lay at 3440 nM. Also, the EC50 at STAT6 was 133 nM.

In test [1], `CC(C)n1nc(C(=O)NCc2ccc(NC(=O)NCc3ccc(NC(=O)N(C)C)cc3)cc2)c2c1[C@@H](C)CN(c1ccc(C(=O)N(C)C)cn1)C2` [Example 499, (S)-5-(5-(dimethylcarbamoyl)pyridin-2-yl)-N-(4-(3-(4-(3,3-dimethylureido)benzyl)ureido)benzyl)-1-isopropyl-7-methyl-4,5,6,7-tetrahydro-1H-pyrazolo[4,3-c]pyridine-3-carboxamide] registered a half-maximal inhibitory concentration (IC50) of 6 nM. The EC50 at STAT6 is 0.3 nM.

As for `CC(C)n1nc(C(=O)NCc2ccc(NC(=O)N(C)C)cc2)c2c1[C@@H](C)CN(c1ncc(C(=O)NCc3ccc(NC(=O)N(C)C)cc3)cn1)C2` [Example 500, (S)-N-(4-(3,3-dimethylureido)benzyl)-5-(5-((4-(3,3-dimethylureido)benzyl)carbamoyl)pyrimidin-2-yl)-1-isopropyl-7-methyl-4,5,6,7-tetrahydro-1H-pyrazolo[4,3-c]pyridine-3-carboxamide], the midpoint of inhibition in test [1], the IC50, lay at 104 nM. In addition, on STAT6, the half-maximal effective concentration (EC50) is 11 nM.

The compound `CC(C)n1nc(C(=O)NCc2ccc(NC(=O)N(C)C)cc2)c2c1[C@@H](C)CN(c1ccc(C(=O)NCc3ccc(NC(=O)N(C)C)cc3)cn1)C2` [Example 501, (S)-N-(4-(3,3-dimethylureido)benzyl)-5-(5-((4-(3,3-dimethylureido)benzyl)carbamoyl)pyridin-2-yl)-1-isopropyl-7-methyl-4,5,6,7-tetrahydro-1H-pyrazolo[4,3-c]pyridine-3-carboxamide] came in with an IC50 in test [1] of 50 nM. Moreover, on STAT6, the 50% effective concentration (EC50) amounted to 7 nM.

`C[C@H]1CN(c2ncc(-c3nccn3C)cn2)Cc2c(C(=O)NCc3ccc(NC(=O)N(C)C)cc3)nn(C)c21` [Example 502, (S)-N-(4-(3,3-dimethylureido)benzyl)-1,7-dimethyl-5-(5-(1-methyl-1H-imidazol-2-yl)pyrimidin-2-yl)-4,5,6,7-tetrahydro-1H-pyrazolo[4,3-c]pyridine-3-carboxamide]: the IC50 in test [1] amounted to 7550 nM. For the same compound, on STAT6, the EC50 turned out to be 813 nM.

In test [1], `CCOC(=O)Nc1ccc(CNC(=O)c2nn(C(C)C)c3c2CN(c2ncc(C(=O)N(C)C)cn2)C[C@@H]3C)cc1` [Example 503, ethyl (S)-(4-((5-(5-(dimethylcarbamoyl)pyrimidin-2-yl)-1-isopropyl-7-methyl-4,5,6,7-tetrahydro-1H-pyrazolo[4,3-c]pyridine-3-carboxamido)methyl)phenyl)carbamate] registered an IC50 of 13 nM. Further, the EC50 at STAT6 was 1 nM.

As to `CC(C)n1nc(C(=O)NCc2ccc(NC(=O)N(C)C)cc2)c2c1[C@@H](C)CN(c1ccc(C(=O)O)cn1)C2` [Example 504, (S)-6-(3-((4-(3,3-dimethylureido)benzyl)carbamoyl)-1-isopropyl-7-methyl-1,4,6,7-tetrahydro-5H-pyrazolo[4,3-c]pyridin-5-yl)nicotinic acid], the half-maximal inhibitory concentration (IC50) in test [1] is > 21200 nM. On STAT6, the EC50 came to 874 nM.

For `CCn1nc(C(=O)NCc2ccc(NC(=O)N(C)C)cc2)c2c1CCN(c1ccc(C(=O)N(C)C)cn1)[C@H]2C` [Example 512, (S)-5-(5-(dimethylcarbamoyl)pyridin-2-yl)-N-(4-(3,3-dimethylureido)benzyl)-1-ethyl-4-methyl-4,5,6,7-tetrahydro-1H-pyrazolo[4,3-c]pyridine-3-carboxamide], the IC50 in test [1] is 2510 nM. Also, on STAT6, the EC50 was determined as 240 nM.

With `CCn1nc(C(=O)NCc2ccc(NC(=O)N(C)C)cc2)c2c1CCN(c1ccc(C(=O)N(C)C)cn1)[C@@H]2C` [Example 513, (R)-5-(5-(dimethylcarbamoyl)pyridin-2-yl)-N-(4-(3,3-dimethylureido)benzyl)-1-ethyl-4-methyl-4,5,6,7-tetrahydro-1H-pyrazolo[4,3-c]pyridine-3-carboxamide], in test [1], the IC50 was found to be 18 nM. Also, the EC50 at STAT6 is 3 nM.

`CC(C)n1nc(C(=O)NCc2ccc(NC(N)=O)cc2)c2c1[C@@H](C)CN(c1ccc(-c3nccn3C)cn1)C2` [Example 516, (S)-1-isopropyl-7-methyl-5-(5-(1-methyl-1H-imidazol-2-yl)pyridin-2-yl)-N-(4-ureidobenzyl)-4,5,6,7-tetrahydro-1H-pyrazolo[4,3-c]pyridine-3-carboxamide] returned a 50% inhibitory concentration (IC50) in test [1] of 5 nM. Further, the concentration giving a half-maximal response (EC50) on STAT6 turned out to be 1 nM.

Regarding `CC(C)n1nc(C(=O)NCc2ccc(C(N)=O)cc2)c2c1[C@@H](C)CN(c1ccc(N3CCOC3=O)cn1)C2` [Example 517, (S)-N-(4-carbamoylbenzyl)-1-isopropyl-7-methyl-5-(5-(2-oxooxazolidin-3-yl)pyridin-2-yl)-4,5,6,7-tetrahydro-1H-pyrazolo[4,3-c]pyridine-3-carboxamide], in test [1], the IC50 was found to be 33 nM. Also, the concentration giving a half-maximal response (EC50) at STAT6 was found to be 9 nM.

Consider `Cc1c[nH]c(-c2ccc(CNC(=O)c3nn(C(C)C)c4c3CN(c3ccc(N5CCOC5=O)cn3)C[C@@H]4C)cc2)n1` [Example 518, (S)-1-isopropyl-7-methyl-N-(4-(4-methyl-1H-imidazol-2-yl)benzyl)-5-(5-(2-oxooxazolidin-3-yl)pyridin-2-yl)-4,5,6,7-tetrahydro-1H-pyrazolo[4,3-c]pyridine-3-carboxamide], for which, in test [1], inhibition was half-maximal at 71 nM (IC50). The 50% effective concentration (EC50) at STAT6 came to 2 nM.

In turn, `Cc1c[nH]c(-c2ccc(CNC(=O)c3nn(C(C)C)c4c3CN(c3ncc(N5CCOC5=O)cn3)C[C@@H]4C)cc2)n1` [Example 519, (S)-1-isopropyl-7-methyl-N-(4-(4-methyl-1H-imidazol-2-yl)benzyl)-5-(5-(2-oxooxazolidin-3-yl)pyrimidin-2-yl)-4,5,6,7-tetrahydro-1H-pyrazolo[4,3-c]pyridine-3-carboxamide] yielded an IC50 in test [1] of 219 nM. Besides, at STAT6, the EC50 was found to be 8 nM.

`CNC(=O)Nc1ccc(CNC(=O)c2nn(C(C)C)c3c2CN(c2ccc(N4CCOC4=O)cn2)C[C@@H]3C)cc1` [Example 520, (S)-1-isopropyl-7-methyl-N-(4-(3-methylureido)benzyl)-5-(5-(2-oxooxazolidin-3-yl)pyridin-2-yl)-4,5,6,7-tetrahydro-1H-pyrazolo[4,3-c]pyridine-3-carboxamide] came in with an IC50 in test [1] of 22 nM. Moreover, the EC50 at STAT6 worked out at 1 nM.

Values taken from patent US20250320213A1, “Nitrogen-Containing Heterocyclic Compounds” (Pfizer Inc., priority 2024, published 2025).
